Article PMC8580996, “2-Oxoglutarate derivatives can selectively enhance or inhibit the activity of human oxygenases” (Nature Communications, 2021)
Several values for one entry are separate records, joined by “and”; a condition that tells them apart may be missing. Equal entries are not always repeated.

Biological target: FIH (Homo sapiens, UniProt Q9NWT6)
Assay: FIH steady-state kinetic parameters (SPE-MS, initial hydroxylation rates)
Type: biochemical
Design: slope of initial reaction rate: unit not given here
Procedure: Final 2OG/2OG derivative concentrations are given in Supplementary Figs. 5 and 6. Reactions were monitored with a rate of ~1 sample/40 s using the same SPE-MS configuration as described above. Data were analyzed as described above and the slopes of the initial reaction rates (Supplementary Figs. 5 and 6) fitted to a Michaelis–Menten plot using non-linear regression (GraphPad Prism 5). […]
determine kinetic parameters for 2OG derivatives (continues on the following page). Maximum velocities (vapp ) and Michaelis constants (Kapp) of FIH were determined in independent triplicates for 2OG and the 2OG […]
SPE-MS as described in the Methods section. […]
acid (LAA), and 20 μM ammonium iron(II) sulfate hexahydrate (FAS, (NH4)2Fe(SO4)2·6H2O) in buffer (50 mM […]
Tris, 50 mM NaCl, pH 7.5, 20° C). […]
data are provided as a Source Data file. […]
concentrations of 2OG; (b) hydroxylation rates used to determine kinetic parameters of FIH for 2OG; (c) time […]
3-methyl-2OG (1); (d) hydroxylation rates used to determine kinetic parameters of FIH for 1; (e) time course of […]
2OG (12); (f) hydroxylation rates used to determine kinetic parameters of FIH for 12; (g) time course of the FIH- […]
(h) hydroxylation rates used to determine kinetic parameters of FIH for 14; (i) time course of the FIH-catalyzed […]
(carboxycarbonyl)cyclopentane-1-carboxylic acid (22); (j) hydroxylation rates used to determine kinetic parameters of FIH for 22.
Supplementary Figure 6. Hydroxylation rates of FIH-catalyzed CA1-20 hydroxylations used to determine kinetic parameters for 2OG derivatives (continues on the following page). Maximum velocities (vapp ) and […]
ammonium iron(II) sulfate hexahydrate (FAS, (NH4)2Fe(SO4)2·6H2O) in buffer (50 mM Tris, 50 mM NaCl, pH […]
Source data are provided as a Source […]
of 2OG; (b) hydroxylation rates used to determine kinetic parameters of FIH for 2OG; (c) time course of the FIH-catalyzed hydroxylation reaction of the CA1-20 peptide for the shown concentrations of 3-methyl-2OG (1); (d) hydroxylation rates used to determine kinetic parameters of FIH for 1; (e) time course of the FIH -catalyzed hydroxylation reaction of the CA 1-20 peptide for the shown concentrations of 4 -methyl-2OG (12); (f) hydroxylation rates used to determine kinetic parameters of FIH for 12; (g) time course of the FIH-catalyzed hydroxylation reaction of the CA1-20 peptide for the shown concentrations of 4-ethyl-2OG (14); (h) hydroxylation rates used to determine kinetic parameters of FIH for 14; (i) time course of the FIH-catalyzed hydroxylation reaction of the CA1-20 peptide for the shown concentrations of 3-(carboxycarbonyl)cyclopentane-1-carboxylic acid (22); (j) hydroxylation rates used to determine kinetic parameters of FIH for 22.

Chain of FIH (Q9NWT6 whole entry): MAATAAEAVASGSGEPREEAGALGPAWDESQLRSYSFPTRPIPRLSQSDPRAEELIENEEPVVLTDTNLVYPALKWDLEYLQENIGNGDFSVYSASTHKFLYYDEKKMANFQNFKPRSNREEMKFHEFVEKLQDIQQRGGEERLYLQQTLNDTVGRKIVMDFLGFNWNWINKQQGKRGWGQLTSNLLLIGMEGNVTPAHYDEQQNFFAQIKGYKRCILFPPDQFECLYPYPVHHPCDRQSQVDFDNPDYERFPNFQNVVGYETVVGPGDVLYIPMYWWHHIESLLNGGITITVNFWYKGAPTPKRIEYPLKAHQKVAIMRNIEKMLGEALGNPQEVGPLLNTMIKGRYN

## CC(CC(=O)O)C(=O)C(=O)O (centres unmarked) [compound 1, 3-methyl-2OG]
0.5 uM compound 1, time 2.098 min
  SPE-MS determined concentration of hydroxylated HIF-1a peptide: 0.06331 µM and 0.08965 µM and 0.06287 µM
0.5 uM compound 1, time 2.797 min
  SPE-MS determined concentration of hydroxylated HIF-1a peptide: 0.08372 µM and 0.1109 µM and 0.07695 µM
0.5 uM compound 1, time 3.49667 min
  SPE-MS determined concentration of hydroxylated HIF-1a peptide: 0.08826 µM and 0.1256 µM and 0.08643 µM
1 uM compound 1, time 0.699833 min
  SPE-MS determined concentration of hydroxylated HIF-1a peptide: 0.05043 µM and 0.061 µM and 0.05097 µM
1 uM compound 1, time 2.098 min
  SPE-MS determined concentration of hydroxylated HIF-1a peptide: 0.09957 µM and 0.1098 µM and 0.1306 µM
1 uM compound 1, time 2.797 min
  SPE-MS determined concentration of hydroxylated HIF-1a peptide: 0.1199 µM and 0.1466 µM and 0.1681 µM
1 uM compound 1, time 3.49667 min
  SPE-MS determined concentration of hydroxylated HIF-1a peptide: 0.1336 µM
2 uM compound 1, time 0.699833 min
  SPE-MS determined concentration of hydroxylated HIF-1a peptide: 0.07885 µM and 0.08056 µM and 0.05916 µM
2 uM compound 1, time 2.098 min
  SPE-MS determined concentration of hydroxylated HIF-1a peptide: 0.1678 µM and 0.1886 µM and 0.1681 µM
2 uM compound 1, time 2.797 min
  SPE-MS determined concentration of hydroxylated HIF-1a peptide: 0.2164 µM and 0.22 µM and 0.1894 µM
2 uM compound 1, time 3.49667 min
  SPE-MS determined concentration of hydroxylated HIF-1a peptide: 0.2473 µM and 0.2744 µM and 0.2266 µM
4 uM compound 1, time 0.699833 min
  SPE-MS determined concentration of hydroxylated HIF-1a peptide: 0.1172 µM and 0.1135 µM and 0.107 µM
4 uM compound 1, time 2.098 min
  SPE-MS determined concentration of hydroxylated HIF-1a peptide: 0.2558 µM and 0.2656 µM and 0.234 µM
4 uM compound 1, time 2.797 min
  SPE-MS determined concentration of hydroxylated HIF-1a peptide: 0.3116 µM and 0.3222 µM and 0.2973 µM
4 uM compound 1, time 3.49667 min
  SPE-MS determined concentration of hydroxylated HIF-1a peptide: 0.3622 µM and 0.3831 µM and 0.3473 µM
8 uM compound 1, time 0.699833 min
  SPE-MS determined concentration of hydroxylated HIF-1a peptide: 0.1456 µM and 0.1338 µM and 0.1272 µM
8 uM compound 1, time 2.098 min
  SPE-MS determined concentration of hydroxylated HIF-1a peptide: 0.3135 µM and 0.3095 µM and 0.2806 µM
8 uM compound 1, time 2.797 min
  SPE-MS determined concentration of hydroxylated HIF-1a peptide: 0.4067 µM and 0.3823 µM and 0.3379 µM
8 uM compound 1, time 3.49667 min
  SPE-MS determined concentration of hydroxylated HIF-1a peptide: 0.4757 µM and 0.4602 µM and 0.409 µM
16 uM compound 1, time 0.699833 min
  SPE-MS determined concentration of hydroxylated HIF-1a peptide: 0.1765 µM and 0.1666 µM and 0.1574 µM
16 uM compound 1, time 2.098 min
  SPE-MS determined concentration of hydroxylated HIF-1a peptide: 0.4139 µM and 0.367 µM and 0.3575 µM
16 uM compound 1, time 2.797 min
  SPE-MS determined concentration of hydroxylated HIF-1a peptide: 0.521 µM and 0.462 µM and 0.4549 µM
16 uM compound 1, time 3.49667 min
  SPE-MS determined concentration of hydroxylated HIF-1a peptide: 0.6245 µM and 0.5486 µM and 0.5372 µM
32 uM compound 1, time 0.699833 min
  SPE-MS determined concentration of hydroxylated HIF-1a peptide: 0.1826 µM and 0.1844 µM and 0.1573 µM
32 uM compound 1, time 2.098 min
  SPE-MS determined concentration of hydroxylated HIF-1a peptide: 0.3964 µM and 0.4231 µM and 0.3597 µM
32 uM compound 1, time 2.797 min
  SPE-MS determined concentration of hydroxylated HIF-1a peptide: 0.4756 µM and 0.5305 µM and 0.4654 µM
32 uM compound 1, time 3.49667 min
  SPE-MS determined concentration of hydroxylated HIF-1a peptide: 0.5827 µM and 0.6364 µM and 0.5668 µM
CA1-20, 1 μM 1
  slope of initial reaction rate: 0.003599 and 0.003561 and 0.003828
CA1-20, 2 μM 1
  slope of initial reaction rate: 0.005878 and 0.006514 and 0.003549
CA1-20, 4 μM 1
  slope of initial reaction rate: 0.007274 and 0.005274 and 0.008096
CA1-20, 8 μM 1
  slope of initial reaction rate: 0.01215 and 0.01007 and 0.00891
HIF-1a788-822, 0.5 μM 1
  slope of initial reaction rate: 0.000467 and 0.000683 and 0.000488
HIF-1a788-822, 1 μM 1
  slope of initial reaction rate: 0.000739 and 0.000996 and 0.000679
HIF-1a788-822, 2 μM 1
  slope of initial reaction rate: 0.001185 and 0.001312 and 0.001139
HIF-1a788-822, 4 μM 1
  slope of initial reaction rate: 0.001713 and 0.001863 and 0.001678
HIF-1a788-822, 8 μM 1
  slope of initial reaction rate: 0.002198 and 0.002166 and 0.001912
HIF-1a788-822, 16 μM 1
  slope of initial reaction rate: 0.002859 and 0.002469 and 0.002609
HIF-1a788-822, 32 μM 1
  slope of initial reaction rate: 0.002446 and 0.002883 and 0.002629
